# Experimental data published in PubChem BioAssay (NCI).
#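 Cells were grown in 96-well plates and exposed to each compound for 48 hours at five concentrations; endpoints were interpolated linearly between bracketing concentrations, or set to the highest concentration if not reached. Abbreviation: GI50, concentration required for 50% inhibition of growth. At the TGI there is no net growth.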
# What was measured:
# Test in all cases: growth of human tumour cells (NCI), 48 h
# SF-539 CNS = system: SF-539 CNS
# HOP-92 NSCLC = system: HOP-92 NSCLC
# NCI-H460 lung = system: NCI-H460 lung
# RPMI-8226 leukemia = system: RPMI-8226 leukemia
# ACHN renal = system: ACHN renal
# SW-620 colon = system: SW-620 colon
# 786-0 renal = system: 786-0 renal
# HCT-116 colon = system: HCT-116 colon
# SR leukemia = system: SR leukemia
# HCC-2998 colon = system: HCC-2998 colon
# M14 melanoma = system: M14 melanoma
# U251 CNS = system: U251 CNS
# SK-MEL-2 melanoma = system: SK-MEL-2 melanoma
# K-562 leukemia = system: K-562 leukemia
# HCT-15 colon = system: HCT-15 colon
# SF-268 CNS = system: SF-268 CNS
# NCI-H226 lung = system: NCI-H226 lung
# CCRF-CEM leukemia = system: CCRF-CEM leukemia
# SK-MEL-28 melanoma = system: SK-MEL-28 melanoma
# SK-MEL-5 melanoma = system: SK-MEL-5 melanoma
# UACC-62 melanoma = system: UACC-62 melanoma
# OVCAR-8 ovarian = system: OVCAR-8 ovarian
# SNB-75 CNS = system: SNB-75 CNS
# MCF7 breast = system: MCF7 breast
# TK-10 renal = system: TK-10 renal
# OVCAR-5 ovarian = system: OVCAR-5 ovarian
# SK-OV-3 ovarian = system: SK-OV-3 ovarian
# A498 renal = system: A498 renal
# IGROV1 ovarian = system: IGROV1 ovarian
# MOLT-4 leukemia = system: MOLT-4 leukemia
# HOP-62 NSCLC = system: HOP-62 NSCLC
# T-47D breast = system: T-47D breast
# COLO 205 colon = system: COLO 205 colon
# RXF 393 renal = system: RXF 393 renal
# NCI/ADR-RES ovarian = system: NCI/ADR-RES ovarian
# MDA-MB-231 breast = system: MDA-MB-231 breast
# UO-31 renal = system: UO-31 renal
# SF-295 CNS = system: SF-295 CNS
# A549 NSCLC = system: A549 NSCLC
# DU-145 prostate = system: DU-145 prostate
# KM12 colon = system: KM12 colon
# SN12C renal = system: SN12C renal
# BT-549 breast = system: BT-549 breast
# HT29 colon = system: HT29 colon
# LOX IMVI melanoma = system: LOX IMVI melanoma
# UACC-257 melanoma = system: UACC-257 melanoma
# OVCAR-3 ovarian = system: OVCAR-3 ovarian
# NCI-H522 lung = system: NCI-H522 lung
# EKVX NSCLC = system: EKVX NSCLC
# PC-3 prostate = system: PC-3 prostate
# MDA-MB-435 = system: MDA-MB-435
# SNB-19 CNS = system: SNB-19 CNS
# HL-60(TB) leukemia = system: HL-60(TB) leukemia
# NCI-H23 lung = system: NCI-H23 lung
# HS 578T breast = system: HS 578T breast
# MALME-3M melanoma = system: MALME-3M melanoma
# OVCAR-4 ovarian = system: OVCAR-4 ovarian
# CAKI-1 renal = system: CAKI-1 renal
smiles,measurement,setting,value
O=C(Nc1cccc(-c2nc(-c3ccc(NC(=O)c4cccs4)cc3Cl)no2)c1)Nc1ccc(NC(=O)C2CC2)c(C(F)(F)F)c1,GI50,SF-539 CNS,188 nM
same,TGI,SF-539 CNS,381 nM
same,GI50,HOP-92 NSCLC,180 nM
same,TGI,HOP-92 NSCLC,450 nM
same,GI50,NCI-H460 lung,204 nM
same,TGI,NCI-H460 lung,412 nM
same,GI50,RPMI-8226 leukemia,396 nM
same,TGI,RPMI-8226 leukemia,2140 nM
same,GI50,ACHN renal,467 nM
same,TGI,ACHN renal,3860 nM
same,GI50,SW-620 colon,256 nM
same,TGI,SW-620 colon,660 nM
same,GI50,786-0 renal,283 nM
same,TGI,786-0 renal,1010 nM
same,GI50,HCT-116 colon,321 nM
same,TGI,HCT-116 colon,1690 nM
same,GI50,SR leukemia,254 nM
same,TGI,SR leukemia,898 nM
same,GI50,HCC-2998 colon,321 nM
same,TGI,HCC-2998 colon,1140 nM
same,GI50,M14 melanoma,324 nM
same,TGI,M14 melanoma,1270 nM
same,GI50,U251 CNS,193 nM
same,TGI,U251 CNS,414 nM
same,GI50,SK-MEL-2 melanoma,343 nM
same,TGI,SK-MEL-2 melanoma,1290 nM
same,GI50,K-562 leukemia,296 nM
same,TGI,K-562 leukemia,1670 nM
same,GI50,HCT-15 colon,409 nM
same,TGI,HCT-15 colon,1850 nM
same,GI50,SF-268 CNS,344 nM
same,TGI,SF-268 CNS,1450 nM
same,GI50,NCI-H226 lung,227 nM
same,TGI,NCI-H226 lung,601 nM
same,GI50,CCRF-CEM leukemia,518 nM
same,TGI,CCRF-CEM leukemia,> 35400 nM
same,GI50,SK-MEL-28 melanoma,209 nM
same,TGI,SK-MEL-28 melanoma,450 nM
same,GI50,SK-MEL-5 melanoma,478 nM
same,TGI,SK-MEL-5 melanoma,1870 nM
same,GI50,UACC-62 melanoma,205 nM
same,TGI,UACC-62 melanoma,527 nM
same,GI50,OVCAR-8 ovarian,311 nM
same,TGI,OVCAR-8 ovarian,1330 nM
same,GI50,SNB-75 CNS,183 nM
same,TGI,SNB-75 CNS,1010 nM
same,GI50,MCF7 breast,220 nM
same,TGI,MCF7 breast,643 nM
same,GI50,TK-10 renal,338 nM
same,TGI,TK-10 renal,1540 nM
same,GI50,OVCAR-5 ovarian,306 nM
same,TGI,OVCAR-5 ovarian,1140 nM
same,GI50,SK-OV-3 ovarian,795 nM
same,TGI,SK-OV-3 ovarian,2990 nM
same,GI50,A498 renal,174 nM
same,TGI,A498 renal,742 nM
same,GI50,IGROV1 ovarian,229 nM
same,TGI,IGROV1 ovarian,574 nM
same,GI50,MOLT-4 leukemia,359 nM
same,TGI,MOLT-4 leukemia,1790 nM
same,GI50,HOP-62 NSCLC,241 nM
same,TGI,HOP-62 NSCLC,624 nM
same,GI50,T-47D breast,257 nM
same,TGI,T-47D breast,972 nM
same,GI50,COLO 205 colon,291 nM
same,TGI,COLO 205 colon,903 nM
same,GI50,RXF 393 renal,214 nM
same,TGI,RXF 393 renal,494 nM
same,GI50,NCI/ADR-RES ovarian,3610 nM
same,TGI,NCI/ADR-RES ovarian,> 100000 nM
same,GI50,MDA-MB-231 breast,219 nM
same,TGI,MDA-MB-231 breast,557 nM
same,GI50,UO-31 renal,993 nM
same,TGI,UO-31 renal,3090 nM
same,GI50,SF-295 CNS,191 nM
same,TGI,SF-295 CNS,370 nM
same,GI50,A549 NSCLC,246 nM
same,TGI,A549 NSCLC,653 nM
same,GI50,DU-145 prostate,317 nM
same,TGI,DU-145 prostate,1130 nM
same,GI50,KM12 colon,317 nM
same,TGI,KM12 colon,1050 nM
same,GI50,SN12C renal,220 nM
same,TGI,SN12C renal,576 nM
same,GI50,BT-549 breast,414 nM
same,TGI,BT-549 breast,2430 nM
same,GI50,HT29 colon,347 nM
same,TGI,HT29 colon,2110 nM
same,GI50,LOX IMVI melanoma,185 nM
same,TGI,LOX IMVI melanoma,356 nM
same,GI50,UACC-257 melanoma,836 nM
same,TGI,UACC-257 melanoma,3230 nM
same,GI50,OVCAR-3 ovarian,280 nM
same,TGI,OVCAR-3 ovarian,778 nM
same,GI50,NCI-H522 lung,244 nM
same,TGI,NCI-H522 lung,729 nM
same,GI50,EKVX NSCLC,295 nM
same,TGI,EKVX NSCLC,1200 nM
same,GI50,PC-3 prostate,209 nM
same,TGI,PC-3 prostate,460 nM
same,GI50,MDA-MB-435,230 nM
same,TGI,MDA-MB-435,547 nM
same,GI50,SNB-19 CNS,301 nM
same,TGI,SNB-19 CNS,1060 nM
same,GI50,HL-60(TB) leukemia,2270 nM
same,TGI,HL-60(TB) leukemia,> 26800 nM
same,GI50,NCI-H23 lung,226 nM
same,TGI,NCI-H23 lung,571 nM
same,GI50,HS 578T breast,230 nM
same,TGI,HS 578T breast,678 nM
same,GI50,MALME-3M melanoma,183 nM
same,TGI,MALME-3M melanoma,376 nM
same,GI50,OVCAR-4 ovarian,223 nM
same,TGI,OVCAR-4 ovarian,492 nM
same,GI50,CAKI-1 renal,244 nM
same,TGI,CAKI-1 renal,678 nM
